From US8802665B2, “Pyrrolidine derivatives” (Hoffman-La Roche Inc., priority 2012, dated 2014)

molecular target: human Cat S (Homo sapiens (Human), UniProt P25774); assay: Cathepsin enzyme inhibition assay (fluorogenic peptide substrate cleavage); type: biochemical; conditions: human Cathepsin S 1 nM, substrate Z-Val-Val-Arg-AMC 20 μM, pH 6.5; read-out: Ic50 CatS: human
Procedure: Cathepsin Enzyme Inhibition Assay
Enzyme activity is measured by observing the increase in fluorescence intensity caused by cleavage of a peptide substrate containing a fluorophore whose emission is quenched in the intact peptide. • Assay buffer: 100 mM potassium phosphate pH 6.5, EDTA-Na 5 mM, Triton X-100 0.001%, DTT 5 mM. • Enzymes (all at 1 nM): human and mouse Cathepsin S, Cat K, Cat B, Cat L. • Substrate (20 μM): Z-Val-Val-Arg-AMC, except for Cat K which uses Z-Leu-Arg-AMC (both from Bachem). • Z=Benzyloxycarbonyl. • AMC=7-Amino-4-Methyl-Coumarin. • DTT=dithiothreitol. • Final volume: 100 μL. • Excitation 360 nm, Emission 465 nm.
Enzyme is added to the substance dilutions in 96-well microtitre plates and the reaction is started with substrate. Fluorescence emission is measured over 20 minutes, during which time a linear increase is observed in the absence of inhibitor. IC50 are calculated by standard methods.
Inhibition of human Cat S, mouse Cat S, human Cat K, human Cat B, human Cat L and mouse Cat L have been measured separately. The results obtained for human Cat S for representative compounds of the invention are expressed in the following table in μM.

Sequence of human Cat S (P25774 115-331): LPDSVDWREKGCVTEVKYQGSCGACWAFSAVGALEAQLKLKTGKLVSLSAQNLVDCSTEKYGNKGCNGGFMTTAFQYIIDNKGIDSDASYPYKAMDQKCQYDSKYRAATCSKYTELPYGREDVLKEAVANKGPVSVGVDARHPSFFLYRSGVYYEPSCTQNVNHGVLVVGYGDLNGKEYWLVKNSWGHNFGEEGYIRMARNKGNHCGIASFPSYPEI

Structure (SMILES) | IC50
CC1CCCN(C2(C(=O)N3C[C@H](S(=O)(=O)c4ccccc4Cl)C[C@H]3C(=O)NC3(C#N)CC3)CC2)C1 (stereo partly drawn) [Example 26, (2S,4R)-4-(2-Chlorophenylsulfonyl)-N-(1-cyanocyclopropyl)-1-(1-(3-methylpiperidin-1-yl)cyclopropanecarbonyl)pyrrolidine-2-carboxamide] | 0.4 nM
N#CC1(NC(=O)[C@@H]2C[C@@H](S(=O)(=O)c3ccccc3Cl)CN2C(=O)C2(N3CCSCC3)CC2)CC1 [Example 27, (2S,4R)-4-(2-Chlorophenylsulfonyl)-N-(1-cyanocyclopropyl)-1-(1-thiomorpholinocyclopropanecarbonyl)pyrrolidine-2-carboxamide] | 0.3 nM
N#CC1(NC(=O)[C@@H]2C[C@@H](S(=O)(=O)c3ccccc3Cl)CN2C(=O)C2(N3CCCC3)CC2)CC1 [Example 28, (2S,4R)-4-(2-Chlorophenylsulfonyl)-N-(1-cyanocyclopropyl)-1-(1-(pyrrolidin-1-yl)cyclopropanecarbonyl)pyrrolidine-2-carboxamide] | 1.2 nM
CC(C)(C)OC(=O)N1CCN(C2(C(=O)N3C[C@H](S(=O)(=O)c4ccccc4Cl)C[C@H]3C(=O)NC3(C#N)CC3)CC2)CC1 [Example 29, tert-Butyl 4-(1-((2S,4R)-4-(2-chlorophenylsulfonyl)-2-(1-cyanocyclopropylcarbamoyl)pyrrolidine-1-carbonyl)cyclopropyl)piperazine-1-carboxylate] | 2.3 nM
N#CC1(NC(=O)[C@@H]2C[C@@H](S(=O)(=O)c3ccccc3Cl)CN2C(=O)C2(N3CCNCC3)CC2)CC1 [Example 30, (2S,4R)-4-(2-Chlorophenylsulfonyl)-N-(1-cyanocyclopropyl)-1-(1-(piperazin-1-yl)cyclopropanecarbonyl)pyrrolidine-2-carboxamide] | 4.2 nM
CC(=O)N1CCN(C2(C(=O)N3C[C@H](S(=O)(=O)c4ccccc4Cl)C[C@H]3C(=O)NC3(C#N)CC3)CC2)CC1 [Example 31, (2S,4R)-1-(1-(4-Acetylpiperazin-1-yl)cyclopropanecarbonyl)-4-(2-chlorophenylsulfonyl)-N-(1-cyanocyclopropyl)pyrrolidine-2-carboxamide] | 2.2 nM
CS(=O)(=O)N1CCN(C2(C(=O)N3C[C@H](S(=O)(=O)c4ccccc4Cl)C[C@H]3C(=O)NC3(C#N)CC3)CC2)CC1 [Example 32, (2S,4R)-4-(2-Chlorophenylsulfonyl)-N-(1-cyanocyclopropyl)-1-(1-(4-(methylsulfonyl)piperazin-1-yl)cyclopropanecarbonyl)pyrrolidine-2-carboxamide] | 2.5 nM
COC(=O)N1CCN(C2(C(=O)N3C[C@H](S(=O)(=O)c4ccccc4Cl)C[C@H]3C(=O)NC3(C#N)CC3)CC2)CC1 [Example 33, Methyl 4-(1-((2S,4R)-4-(2-chlorophenylsulfonyl)-2-(1-cyanocyclopropylcarbamoyl)pyrrolidine-1-carbonyl)cyclopropyl)piperazine-1-carboxylate] | 2.6 nM
N#CC1(NC(=O)[C@@H]2C[C@@H](S(=O)(=O)c3ccccc3Cl)CN2C(=O)C2(N3CCN(C=O)CC3)CC2)CC1 [Example 34, (2S,4R)-4-(2-Chlorophenylsulfonyl)-N-(1-cyanocyclopropyl)-1-(1-(4-formylpiperazin-1-yl)cyclopropanecarbonyl)pyrrolidine-2-carboxamide] | 1.4 nM
N#CC1(NC(=O)[C@@H]2C[C@@H](S(=O)(=O)c3ccccc3Cl)CN2C(=O)C2(N3CCN(C(=O)C(F)(F)F)CC3)CC2)CC1 [Example 35, (2S,4R)-4-(2-Chlorophenylsulfonyl)-N-(1-cyanocyclopropyl)-1-(1-(4-(2,2,2-trifluoroacetyl)piperazin-1-yl)cyclopropanecarbonyl)pyrrolidine-2-carboxamide] | 3.7 nM
CCN1CCN(C2(C(=O)N3C[C@H](S(=O)(=O)c4ccccc4Cl)C[C@H]3C(=O)NC3(C#N)CC3)CC2)CC1 [Example 36, (2S,4R)-4-(2-Chlorophenylsulfonyl)-N-(1-cyanocyclopropyl)-1-(1-(4-ethylpiperazin-1-yl)cyclopropanecarbonyl)pyrrolidine-2-carboxamide] | 6.2 nM
